Test results: patent US20230183237A1, “COMPETITIVE AND NONCOMPETITIVE INHIBITORS OF THE MUSCARINIC ACETYLCHOLINE RECEPTOR M5” (Vanderbilt University, priority 2020, published 2023)

Target: T1, hM5 (Homo sapiens, UniProt P08912)
T1 construct: expressed in transfected cells
T1 sequence (P08912 1-532): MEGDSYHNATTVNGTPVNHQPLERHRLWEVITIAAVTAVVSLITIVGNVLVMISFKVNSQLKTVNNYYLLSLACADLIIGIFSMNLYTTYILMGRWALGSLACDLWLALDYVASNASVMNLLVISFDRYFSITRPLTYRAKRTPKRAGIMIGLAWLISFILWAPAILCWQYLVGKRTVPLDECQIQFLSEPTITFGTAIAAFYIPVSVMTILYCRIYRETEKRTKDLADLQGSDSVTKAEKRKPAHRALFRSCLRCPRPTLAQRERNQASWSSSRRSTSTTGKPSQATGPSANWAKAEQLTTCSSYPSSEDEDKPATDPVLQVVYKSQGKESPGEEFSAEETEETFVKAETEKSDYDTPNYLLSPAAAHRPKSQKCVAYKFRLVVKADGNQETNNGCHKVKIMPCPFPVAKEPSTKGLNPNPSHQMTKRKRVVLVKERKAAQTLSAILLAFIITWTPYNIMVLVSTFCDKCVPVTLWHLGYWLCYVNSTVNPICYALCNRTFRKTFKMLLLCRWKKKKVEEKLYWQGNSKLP
Assay: Calcium mobilization concentration-response (IC50 vs EC80 acetylcholine), CHO hM5
Assay type: cell-based
Conditions: CELL LINE hM5; calcium mobilization, EC80 acetylcholine addition; read-out: IC50
Procedure, shortened: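 CHO cells stably expressing hM5, dye-loaded, in HBSS/20 mM HEPES/2.5 mM probenecid, pH 7.4. Compounds were pre-incubated 140 s before an EC80 acetylcholine challenge, with calcium flux read kinetically.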

Cc1nc2[nH]ccc2nc1C1CCN(S(=O)(=O)c2ccc3ncsc3c2)CC1 [Compound 16, 6-((4-(3-methyl-5H-pyrrolo[2,3-b]pyrazin-2-yl)piperidin-1-yl)sulfonyl)benzo[d]thiazole] and Cc1cc2nccn2nc1C1CCN(S(=O)(=O)c2ccc3ncccc3c2)CC1 [Compound 39, 6-((4-(7-methylimidazo[1,2-b]pyridazin-6-yl)piperidin-1-yl)sulfonyl)quinoline] cannot be ordered by IC50: greater than 10000 nM for the first, greater than 10000 nM for the second.

Cc1cc2ncnn2nc1C1CCN(S(=O)(=O)c2cnn(C(F)F)c2C)CC1 [Compound 176, 6-(1-((1-(difluoromethyl)-5-methyl-1H-pyrazol-4-yl)sulfonyl)piperidin-4-yl)-7-methyl-[1,2,4]triazolo[1,5-b]pyridazine] and Cc1cc2ncnn2nc1C1CCN(S(=O)(=O)c2cn(C)nc2C)CC1 [Compound 182, 6-(1-((1,3-dimethyl-1H-pyrazol-4-yl)sulfonyl)piperidin-4-yl)-7-methyl-[1,2,4]triazolo[1,5-b]pyridazine] cannot be ordered by IC50: greater than 10000 nM for the first, greater than 10000 nM for the second.

Cc1cc2ncnn2nc1C1CCN(S(=O)(=O)c2ccc3c(c2)OCCO3)CC1 [Compound 184, 6-(1-((2,3-dihydrobenzo[b][1,4]dioxin-6-yl)sulfonyl)piperidin-4-yl)-7-methyl-[1,2,4]triazolo[1,5-b]pyridazine] and Cc1cc2ncnn2nc1C1=CCN(S(=O)(=O)c2ccc3c(c2)N(C)CCO3)CC1 [Compound 170, 4-methyl-6-((4-(7-methyl-[1,2,4]triazolo[1,5-b]pyridazin-6-yl)-3,6-dihydropyridin-1(2H)-yl)sulfonyl)-3,4-dihydro-H-benzo[b][1,4]oxazine] cannot be ordered by IC50: greater than 10000 nM for the first, greater than 10000 nM for the second.

Compared with Cc1cc2ncnn2cc1[C@@H]1CCN(S(=O)(=O)c2cnn(C)c2C)C[C@H]1F (racemic) [Compound 174, (rac)-6-(trans-1-((1,5-Dimethyl-1H-pyrazol-4-yl)sulfonyl)-3-fluoropiperidin-4-yl)-7-methyl-[1,2,4]triazolo[1,5-a]pyridine], Cc1cc2ncnn2cc1C1CCN(S(=O)(=O)c2cnn(C)c2C(F)(F)F)CC1 [Compound 162, 7-methyl-6-(1-((1-methyl-5-(trifluoromethyl)-1H-pyrazol-4-yl)sulfonyl)piperidin-4-yl)-[1,2,4]triazolo[1,5-a]pyridine] is 4.8-fold higher in IC50: 20 nM for the first, 96 nM for the second. The first is the more potent here.

O=S(=O)(c1ccc2c(c1)CCO2)N1CC[C@@H](c2cn(-c3ccc4scnc4c3)nn2)C1 [Compound 59, (R)-5-(4-(1-((2,3-Dihydrobenzofuran-5-yl)sulfonyl)pyrrolidin-3-yl)-1H-1,2,3-triazol-1-yl)benzo[d]thiazole] and O=S(=O)(c1ccc2c(c1)CCO2)N1CCC(c2nc3cccnc3s2)CC1 [Compound 12, 2-(1-((2,3-dihydrobenzofuran-5-yl)sulfonyl)piperidin-4-yl)thiazolo[5,4-b]pyridine] cannot be ordered by IC50: greater than 10000 nM for the first, greater than 10000 nM for the second.

Going from Cc1cc2c(cc1C1CCN(S(=O)(=O)c3cnc(C)n3C)CC1)OCO2 [Compound 373, 1-((1,2-dimethyl-1H-imidazol-5-yl)sulfonyl)-4-(6-methylbenzo[d][1,3]dioxol-5-yl)piperidine] to Cc1cc2c(cc1C1CCN(S(=O)(=O)c3ccc4c(c3)CCO4)CC1)OCO2 [Compound 375, 1-((2,3-dihydrobenzofuran-5-yl)sulfonyl)-4-(6-methylbenzo[d][1,3]dioxol-5-yl)piperidine], the IC50 rises from 13 nM to 2060 nM (160-fold). The first is the more potent here.

O=S(=O)(c1cc2c(cc1F)OCC2)N1CCC(c2ccc3ncnn3c2)CC1 [Compound 61, 6-(1-((6-fluoro-2,3-dihydrobenzofuran-5-yl)sulfonyl)piperidin-4-yl)-[1,2,4]triazolo[1,5-a]pyridine] and Cc1cc2ncnn2cc1C1CCN(S(=O)(=O)c2ccccc2F)CC1 [Compound 97, 6-(1-((2-fluorophenyl)sulfonyl)piperidin-4-yl)-7-methyl-[1,2,4]triazolo[1,5-a]pyridine] cannot be ordered by IC50: greater than 10000 nM for the first, greater than 10000 nM for the second.

First: Cc1nc(C(F)(F)F)c(S(=O)(=O)N2CCC(c3cn4ncnc4cc3C)CC2)s1 [Compound 129, 2-methyl-5-((4-(7-methyl-[1,2,4]triazolo[1,5-a]pyridin-6-yl)piperidin-1-yl)sulfonyl)-4-(trifluoromethyl)thiazole]
Second: O=S(=O)(c1cnn2c1CCC2)N1CCC(c2cn3ncnc3cc2C(F)(F)F)CC1 [Compound 272, 6-(1-((5,6-dihydro-4H-pyrrolo[1,2-b]pyrazol-3-yl)sulfonyl)piperidin-4-yl)-7-(trifluoromethyl)-[1,2,4]triazolo[1,5-a]pyridine]
The IC50 of the first is 51-fold higher: 3800 nM for the first, 74 nM for the second. The second is the more potent here.

First: O=S(=O)(c1cnn2c1CCC2)N1CC=C(c2cc3ncnn3cc2Cl)CC1 [Compound 195, 6-chloro-7-(1-((5,6-dihydro-4H-pyrrolo[1,2-b]pyrazol-3-yl)sulfonyl)-1,2,3,6-tetrahydropyridin-4-yl)-[1,2,4]triazolo[1,5-a]pyridine]
Second: Cc1cc2ncnn2cc1C1=CCN(S(=O)(=O)c2cc3c(cc2C)OCC3C)CC1 (centres unmarked) [Compound 84, 6-(1-((3,6-dimethyl-2,3-dihydrobenzofuran-5-yl)sulfonyl)-1,2,3,6-tetrahydropyridin-4-yl)-7-methyl-[1,2,4]triazolo[1,5-a]pyridine]
The IC50 of the first is 2.8-fold lower: 65 nM for the first, 185 nM for the second. The first is the more potent here.

O=S(=O)(c1ccc2c(c1)CCO2)N1CCC(c2nc3ccccc3[nH]2)CC1 [Compound 3, 2-(1-((2,3-dihydrobenzofuran-5-yl)sulfonyl)piperidin-4-yl)-1H-benzo[d]imidazole] and O=S(=O)(c1ccc2c(c1)CCO2)N1CC=C(c2cc3c(cc2Cl)OCO3)CC1 [Compound 352, 4-(6-chlorobenzo[d][1,3]dioxol-5-yl)-1-((2,3-dihydrobenzofuran-5-yl)sulfonyl)-1,2,3,6-tetrahydropyridine] cannot be ordered by IC50: greater than 10000 nM for the first, greater than 10000 nM for the second.

Compared with Cc1c(S(=O)(=O)N2CCC(c3cn4ncnc4cc3F)CC2)cnn1C(F)F [Compound 230, 6-(1-((1-(difluoromethyl)-5-methyl-1H-pyrazol-4-yl)sulfonyl)piperidin-4-yl)-7-fluoro-[1,2,4]triazolo[1,5-a]pyridine], Cc1cc2ncnn2cc1C1CCN(S(=O)(=O)c2ccc3c(c2F)C(C)CO3)CC1 (centres unmarked) [Compound 104, 6-(1-((4-fluoro-3-methyl-2,3-dihydrobenzofuran-5-yl)sulfonyl)piperidin-4-yl)-7-methyl-[1,2,4]triazolo[1,5-a]pyridine] is lower in IC50: greater than 10000 nM for the first, 114 nM for the second. The second is the more potent here.

For Cc1ccncc1C1CCN(S(=O)(=O)c2cnn(C)c2Cl)CC1 [Compound 383, 3-(1-((5-chloro-1-methyl-1H-pyrazol-4-yl)sulfonyl)piperidin-4-yl)-4-methylpyridine], the IC50 was 1640 nM.

Same assay, conditions: CELL LINE hM5; vs EC80 acetylcholine; read-out: IC50

Going from Cc1ncc(S(=O)(=O)N2CCC(c3cnc(N(C)C)cc3C)CC2)s1 [Compound 552, N.N,4-trimethyl-5-(1-((2-methylthiazol-5-yl)sulfonyl)piperidin-4-yl)pyridin-2-amine] to Cc1cc(S(=O)(=O)N2CCC(c3cnc(N(C)C)cc3C)CC2)sn1 [Compound 565, N,N,4-trimethyl-5-(1-((3-methylisothiazol-5-yl)sulfonyl)piperidin-4-yl)pyridin-2-amine], the IC50 falls from 94 nM to 38 nM (2.5-fold). The second is the more potent here.

First: [2H]C1([2H])CC(c2cn3ncnc3c(F)c2C)CC([2H])([2H])N1S(=O)(=O)c1cc(C)ns1 [Compound 527, 5-((4-(8-fluoro-7-methyl-[1,2,4]triazolo[1,5-a]pyridin-6-yl)piperidin-1-yl-2,2,6,6-d4)sulfonyl)-3-methylisothiazole]
Second: [2H]C1([2H])CC(c2cn3ncnc3c(F)c2C)CC([2H])([2H])N1S(=O)(=O)c1cnn(C)c1C(F)F [Compound 474, 6-(1-((5-(Difluoromethyl)-1-methyl-1H-pyrazol-4-yl)sulfonyl)piperidin-4-yl-2,2,6,6-d4)-8-fluoro-7-methyl-[1,2,4]triazolo[1,5-a]pyridine]
The IC50 of the first is 5.3-fold higher: 58 nM for the first, 11 nM for the second.

Going from Cc1cc2ncnn2cc1C1CCN(S(=O)(=O)c2cnn(C)c2-c2scnc2C)CC1 [Compound 598, 4-Methyl-5-(1-methyl-4-((4-(7-methyl-[1,2,4]triazolo[1,5-a]pyridin-6-yl)piperidin-1-yl)sulfonyl)-1H-pyrazo1-5-yl)thiazole] to O=S(=O)(c1cnc2sccn12)N1CCC(c2cn3ncnc3cc2C(F)(F)F)CC1 [Compound 518, 5-((4-(7-(trifluoromethyl)-[1,2,4]triazolo[1,5-a]pyridin-6-yl)piperidin-1-yl)sulfonyl)imidazo[2,1-b]thiazole], the IC50 falls from 804 nM to 68 nM (12-fold).

Going from Cc1nc2n(c1C1CCN(S(=O)(=O)c3cnn(C)c3C)CC1)CCCC2 [Compound 464, 3-(1-((1,5-dimethyl-1H-pyrazol-4-yl)sulfonyl)piperidin-4-yl)-2-methyl-5,6,7,8-tetrahydroimidazo[1,2-a]pyridine] to Cc1cc2ncccc2cc1C1CCN(S(=O)(=O)c2cnc3n2CCCC3)CC1 [Compound 450, 7-methyl-6-(1-((5,6,7,8-tetrahydroimidazo[1,2-a]pyridin-3-yl)sulfonyl)piperidin-4-yl)quinoline], the IC50 falls from 275 nM to 39 nM (7.1-fold).

Cc1ncc(S(=O)(=O)N2CCC(c3ccncc3C)CC2)s1 [Compound 430, 2-methyl-5-((4-(3-methylpyridin-4-yl)piperidin-1-yl)sulfonyl)thiazole] gave an IC50 greater than 10000 nM.
